From patent US5948436A, “Pharmaceutical composition” (Abbott Laboratories, priority 1995, dated 1999)

Tests used:
[1] = Oral bioavailability studies in dogs (AUC after oral vs. intravenous dose); design: species or system dog (beagle dogs, mixed sexes); details: dog, in vivo, 5 mg/kg
Method: Each dog received a single solid dosage form corresponding to a 5 mg/kg dose of the drug.

HIV-1 protease = HIV-1 protease (HIV-1 M:B_HXB2R, UniProt P04585); format: biochemical
HIV-2 protease = assay: Inhibition of HIV-2 protease; format: biochemical

Row | Compound | bioavailability [1] [%] | inhibition of HIV-1 protease (HIV-1 protease) | inhibition of HIV-2 protease (HIV-2 protease)
1 | CC(C)c1nc(CN(C)C(=O)N[C@H](C(=O)N[C@@H](Cc2ccccc2)C[C@H](O)[C@H](Cc2ccccc2)NC(=O)OCc2cncs2)C(C)C)cs1 [compound III, (2S,3S,5S)-5-(N-(N-((N-Methyl-N-((2-isopropyl-4-thiazolyl)methyl)-amino)carbonyl)valinyl)amino)-2-(N-((5-thiazolyl)methoxycarbonyl)amino)-1,6-diphenyl-3-hydroxyhexane] | < 2 |  | 
2 | CC(C)c1nc(CN(C)C(=O)NC(C(=O)NC(Cc2ccccc2)CC(O)C(Cc2ccccc2)NC(=O)OCc2cncs2)C(C)C)cs1 (stereo not drawn) [formula II] |  | especially effective | especially effective
